Source: ChEMBL document CHEMBL1130844, “Synthesis and NK1 receptor antagonistic activity of (+/-)-1-acyl-3-(3,4- dichlorophenyl)-3-[2-(spiro-substituted piperidin-1'-yl)ethyl]piperidines” (Bioorg Med Chem Lett, 1998)

Assays:
Substance-P receptor = Substance-P receptor (Cavia porcellus, UniProt P30547); experiment: Neurokinin (NK1) receptor antagonistic activity was evaluated.; format: functional
Cavia porcellus = experiment: Inhibitory activity of substance P-induced bronchoconstriction in guinea pigs upon intravenous administration was evaluated.; format: functional; conditions: read-out: ID50 (the source's name)

Sequence of Substance-P receptor (P30547 whole entry): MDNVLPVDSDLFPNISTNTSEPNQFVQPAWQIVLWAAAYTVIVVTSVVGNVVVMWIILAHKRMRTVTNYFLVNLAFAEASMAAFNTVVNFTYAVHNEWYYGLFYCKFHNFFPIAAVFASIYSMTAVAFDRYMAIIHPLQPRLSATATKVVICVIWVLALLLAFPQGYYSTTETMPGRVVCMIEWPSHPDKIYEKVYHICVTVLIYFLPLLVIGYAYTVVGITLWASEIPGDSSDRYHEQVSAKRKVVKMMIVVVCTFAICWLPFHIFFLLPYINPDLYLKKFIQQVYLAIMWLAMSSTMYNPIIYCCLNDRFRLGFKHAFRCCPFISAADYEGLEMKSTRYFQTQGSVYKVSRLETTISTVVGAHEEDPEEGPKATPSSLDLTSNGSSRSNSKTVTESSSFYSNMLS

Row | IC50 (Substance-P receptor) | SMILES | ED50 (Cavia porcellus)
1 | 16 nM | CC(C)Oc1cccc(CC(=O)N2CCCC(CCN3CCC4(CC3)OCc3ccccc34)(c3ccc(Cl)c(Cl)c3)C2)c1 (configuration not stated) | –
2 | 105 nM | CC(C)Oc1cccc(CC(=O)N2CCCC(CCN3C4CCC3CC3(C4)OCc4ccccc43)(c3ccc(Cl)c(Cl)c3)C2)c1 (configuration not stated) | –
3 | 54 nM | CC(C)Oc1cccc(CC(=O)N2CCCC(CCN3CCC4(CC3)NC(=O)Cc3ccccc34)(c3ccc(Cl)c(Cl)c3)C2)c1 (configuration not stated) | –
4 | 16 nM | CC(C)Oc1cccc(CC(=O)N2CCCC(CC[N+]3(Cc4ccccc4)CCC4(CC3)NCCc3ccccc34)(c3ccc(Cl)c(Cl)c3)C2)c1 (configuration not stated) | –
5 | 2 nM | CC(C)Oc1cccc(CC(=O)N2CCCC(CC[N+]3(C)CCC4(CC3)NCCc3ccccc34)(c3ccc(Cl)c(Cl)c3)C2)c1.[I-] (configuration not stated) | 0.049 mg/kg
6 | 6.3 nM | CC(C)Oc1cccc(CC(=O)N2CCCC(CC[N+]3(C)CCC4(CC3)c3ccccc3C[S+]4[O-])(c3ccc(Cl)c(Cl)c3)C2)c1 (configuration not stated) | –
7 | 18 nM | CC(C)Oc1cccc(CC(=O)N2CCCC(CCN3CCC4(CC3)c3ccccc3C[S+]4[O-])(c3ccc(Cl)c(Cl)c3)C2)c1 (configuration not stated) | –
8 | 31 nM | CC(C)Oc1cccc(CC(=O)N2CCCC(CCN3CCC4(CC3)NCCc3ccccc34)(c3ccc(Cl)c(Cl)c3)C2)c1 (configuration not stated) | –
9 | 58 nM | CN(CC(CCN1CCC2(CC1)NCCc1ccccc12)c1ccc(Cl)c(Cl)c1)C(=O)c1ccccc1 (configuration not stated) | –
10 | 4.8 nM | CC[N+]1(CCC2(c3ccc(Cl)c(Cl)c3)CCCN(C(=O)Cc3cccc(OC(C)C)c3)C2)CCC2(CC1)NCCc1ccccc12 (configuration not stated) | –
11 | 1.9 nM | CC(C)Oc1cccc(CC(=O)N2CCCC(CC[N+]3(C)CCC4(CC3)NC(=O)Cc3ccccc34)(c3ccc(Cl)c(Cl)c3)C2)c1.[I-] (stereo in doubt; 5ba) | 0.024 mg/kg
12 | 35 nM | CC(C)Oc1cccc(CC(=O)N2CCCC(CC[N+]3(C)CCC4(CC3)NC(=O)Cc3ccccc34)(c3ccc(Cl)c(Cl)c3)C2)c1 (stereo in doubt; 5bb) | –

Row | SMILES | IC50 (Substance-P receptor) | ED50 (Cavia porcellus)
13 | CN(CC(CCN1CCC2(CC1)OCc1ccccc12)c1ccc(Cl)c(Cl)c1)C(=O)c1ccccc1 (configuration not stated) | 710 nM | –
14 | CC(C)Oc1cccc(CC(=O)N2CCCC(CC[N+]34CCC(c5ccccc5)(CC3)CC4)(c3ccc(Cl)c(Cl)c3)C2)c1.[Cl-] (racemic) | 0.31 nM | 0.019 mg/kg
